Results taken from US5276023A, “19-nor-steroid esters” (Roussel Uclaf, priority 1989, dated 1994).

Tests used:
Androgen receptor = biological target: T1, Androgen receptor (Rattus norvegicus, UniProt P15207); assay: relative bond affinity for the androgen receptor of rat's prostate; assay type: binding; conditions: tritiated testosterone, RBA=100 (CH)/(CX), reference cold testosterone; for relative bond affinity (RBA), Androgen 0,5H: half an hour incubation at 0° C.; for relative bond affinity (RBA), Androgen: incubation at 0° C.
T1 construct: The prostates were removed, weighed and homogenized; from tissue; host or cells: prostate cytosol (105,000 g supernatant) of castrated male rats
T1 sequence (P15207 1-902): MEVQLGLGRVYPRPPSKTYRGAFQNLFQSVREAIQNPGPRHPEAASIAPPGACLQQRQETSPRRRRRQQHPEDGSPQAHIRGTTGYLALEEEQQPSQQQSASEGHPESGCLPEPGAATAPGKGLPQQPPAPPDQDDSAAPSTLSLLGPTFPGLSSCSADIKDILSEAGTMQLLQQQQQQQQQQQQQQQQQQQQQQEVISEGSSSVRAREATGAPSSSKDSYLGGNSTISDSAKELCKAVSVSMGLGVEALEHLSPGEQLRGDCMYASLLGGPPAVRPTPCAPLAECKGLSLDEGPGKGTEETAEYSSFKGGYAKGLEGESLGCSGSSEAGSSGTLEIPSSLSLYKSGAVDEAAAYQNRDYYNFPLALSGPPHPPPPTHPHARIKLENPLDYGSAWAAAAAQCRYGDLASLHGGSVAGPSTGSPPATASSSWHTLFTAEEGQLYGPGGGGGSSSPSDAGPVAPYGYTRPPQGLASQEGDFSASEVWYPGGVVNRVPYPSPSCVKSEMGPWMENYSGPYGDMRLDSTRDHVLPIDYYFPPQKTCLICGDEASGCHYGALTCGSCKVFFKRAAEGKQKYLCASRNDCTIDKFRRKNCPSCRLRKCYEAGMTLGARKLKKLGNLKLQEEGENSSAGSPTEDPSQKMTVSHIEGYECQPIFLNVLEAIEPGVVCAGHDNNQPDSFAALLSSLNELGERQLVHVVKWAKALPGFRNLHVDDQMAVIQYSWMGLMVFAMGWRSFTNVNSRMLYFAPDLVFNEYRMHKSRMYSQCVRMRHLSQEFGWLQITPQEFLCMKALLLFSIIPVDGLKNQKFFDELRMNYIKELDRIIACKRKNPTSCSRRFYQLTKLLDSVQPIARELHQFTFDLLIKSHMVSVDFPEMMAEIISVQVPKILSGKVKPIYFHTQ
Procedure: (§1) 1) Measurement of the relative bond affinity for the receptors of steroid hormones:
Androgen receptor of rat's prostate
Male rats weighing 160 to 200 g were castrated and 24 hours after the castration, the animals were killed. The prostates were removed, weighed and homogenized at 0° C. using a Potter teflon-flask in a (TSDPM) 10 mM Tris, 0.25M saccharose, […] phenylmethanesulfonylfluoride, 20 mM molybdate, 2 mM dithiothreitol, HCl pH 7.4 buffer (1 g of tissue per 5 ml of TSDPM). The homogenate was ultracentrifuged (105,000 g×60 mn) at 0° C. and aliquots of the supernatant "cytosol", were incubated at 0° C. with a constant concentration in the presence of increasing concentrations (0-1000 nM) of cold testosterone or of the product under test. […]
(§2) Calculation of the relative bond affinity:
(§3) The calculation of the relative bond affinity (RBA) was identical for all receptors. The following two curves were drawn: the percentage of bonded tritiated hormone B/T as a function of the logarithm of the concentration of the cold reference hormone and B/T as a function of the logarithm of the concentration of the cold product under test. The straight line of the equation:
(§4) B max=Percentage of bonded tritiated hormone for an incubation of this tritiated hormone at the concentration (T).
(§5) B min=Percentage of bonded tritiated hormone for an incubation of this tritiated hormone at the concentration (T) in the presence of a great excess of cold hormone (2500×10^-9 M).
(§6) The intersections of the straight line I50 and the curves allowed the evaluation of the concentrations of the cold reference hormone (CH) and of the cold product under test (CX) which inhibited by 50% the bonding of the tritiated hormone on the receptor. The relative bond affinity (RBA) of the product under test was determined by the equation RBA=100 (CH)/(CX)

Progesterone receptor = biological target: T2, Progesterone receptor (Oryctolagus cuniculus, UniProt P06186); assay: relative bond affinity for the progesterone receptor of rabbit's uterus; assay type: binding; conditions: for relative bond affinity (RBA), Progesterone 2H: 2 hours incubation at 0° C.; for relative bond affinity (RBA), Progesterone 2H / relative bond affinity (RBA), Progesterone 24H: tritiated R 5020 5 nM, RBA=100 (CH)/(CX), reference cold progesterone; for relative bond affinity (RBA), Progesterone 24H: 24 hours incubation at 0° C.; for antiprogesterone activity: conclusion in words from the receptor binding study
T2 construct: from tissue; host or cells: uterus cytosol (105,000 g supernatant) of impuberal female rabbits treated with estradiol
T2 sequence (P06186 1-930): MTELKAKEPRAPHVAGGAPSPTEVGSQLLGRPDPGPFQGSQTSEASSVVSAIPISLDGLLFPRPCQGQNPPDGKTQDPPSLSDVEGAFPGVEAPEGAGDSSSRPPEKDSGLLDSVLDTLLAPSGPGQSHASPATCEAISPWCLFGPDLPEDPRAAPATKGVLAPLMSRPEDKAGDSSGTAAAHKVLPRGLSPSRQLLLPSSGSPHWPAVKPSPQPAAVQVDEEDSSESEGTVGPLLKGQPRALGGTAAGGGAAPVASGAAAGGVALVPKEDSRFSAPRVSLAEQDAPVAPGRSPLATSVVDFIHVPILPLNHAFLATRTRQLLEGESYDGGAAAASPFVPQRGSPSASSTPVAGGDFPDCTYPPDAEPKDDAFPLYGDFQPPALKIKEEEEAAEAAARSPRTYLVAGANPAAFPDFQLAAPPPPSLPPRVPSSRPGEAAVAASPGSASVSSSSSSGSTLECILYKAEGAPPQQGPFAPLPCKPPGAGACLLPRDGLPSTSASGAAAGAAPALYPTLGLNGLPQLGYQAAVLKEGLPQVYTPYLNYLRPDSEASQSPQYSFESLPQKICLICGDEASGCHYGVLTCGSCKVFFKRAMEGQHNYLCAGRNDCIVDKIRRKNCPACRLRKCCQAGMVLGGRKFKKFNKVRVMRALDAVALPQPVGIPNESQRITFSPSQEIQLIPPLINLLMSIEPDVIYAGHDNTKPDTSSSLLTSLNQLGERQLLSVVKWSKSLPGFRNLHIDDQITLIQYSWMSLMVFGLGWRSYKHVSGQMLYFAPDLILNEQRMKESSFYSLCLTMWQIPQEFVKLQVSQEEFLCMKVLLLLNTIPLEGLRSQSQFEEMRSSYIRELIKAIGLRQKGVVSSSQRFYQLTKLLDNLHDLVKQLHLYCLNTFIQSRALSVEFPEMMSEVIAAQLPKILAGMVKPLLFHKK
Procedure: as §1
Progesterone receptor of rabbit's uterus:
Impuberal female rabbits weighing about 1 kg received a cutaneous application of 25 ug of estradiol and five days after this treatment, the animals were killed and the uteruses were removed, weighed and homogenized at 0° C. using a Potter teflon-flask in a (TS) 10 mM Tris, 0.25M saccharose, HCl pH 7.4 buffer (1 g of tissue per 50 ml of TS). The homogenate was then ultra-centrifuged (105,000 g×90 mn) at 0° C. […] The concentration of bonded tritiated R 5020 (B) was then measured in each incubate by the technique of adsorption with carbon-dextran.
as §2, §3, §4, §5, §6

| Structure (SMILES) | relative bond affinity (RBA), Androgen 0,5H (Androgen receptor) | relative bond affinity (RBA), Androgen (Androgen receptor) | relative bond affinity (RBA), Androgen 0,5H (Androgen receptor; listed as EX. 6) | relative bond affinity (RBA), Androgen (Androgen receptor; listed as EX. 6) | relative bond affinity (RBA), Androgen 0,5H (Androgen receptor; listed as EX. 5) | relative bond affinity (RBA), Androgen (Androgen receptor; listed as EX. 5) | relative bond affinity (RBA), Progesterone 2H (Progesterone receptor) | relative bond affinity (RBA), Progesterone 24H (Progesterone receptor) | antiprogesterone activity (Progesterone receptor) | relative bond affinity (RBA), Progesterone 24H (Progesterone receptor; listed as EX. 6) | relative bond affinity (RBA), Progesterone 24H (Progesterone receptor; listed as EX. 5) |
| --- | --- | --- | --- | --- | --- | --- | --- | --- | --- | --- | --- |
| CC#C[C@]1(OC(=O)CCC(=O)O)CC[C@H]2[C@@H]3CCC4=CC(=O)CCC4=C3[C@@H](c3ccc(SC)cc3)C[C@@]21C [Example 12, Sodium and 11β-[4-methylthio-phenyl]-17α-(1-propynyl)-Δ^4,9 estradien-3-one-17β-yl succinate] | 0,8 | 0,3 |  |  |  |  | 1,2 | 3,6 | good |  |  |
| CN(C)c1ccc([C@H]2C[C@@]3(C)[C@@H](CC[C@@]3(O)C#CCOC(=O)CCC(=O)O)[C@@H]3CCC4=CC(=O)CCC4=C32)cc1 [Example 4, Sodium and 3-[11β-[4-dimethylamino-phenyl]-Δ^4,9-estradien-17β-ol-3-one-17α-yl]-2-propynyl succinate] | 5,1 | 2,8 |  |  |  |  | 14 | 26 |  |  |  |
| CC#C[C@]1(OC(=O)CCC(=O)O)CC[C@H]2[C@@H]3CCC4=CC(=O)CCC4=C3[C@@H](c3ccc(N(C)C)cc3)C[C@@]21C [Example 5, 11β-[4-dimethylamino-phenyl]-17-(1-propynyl)-Δ^4,9-estradien-3-one-17β-yl acid succinate] |  |  |  |  | 0,6 | 1 | 2 |  |  |  | 8 |

Further lines, with some results ahead:

| relative bond affinity (RBA), Androgen 0,5H (Androgen receptor) | relative bond affinity (RBA), Androgen (Androgen receptor) | relative bond affinity (RBA), Androgen 0,5H (Androgen receptor; listed as EX. 6) | relative bond affinity (RBA), Androgen (Androgen receptor; listed as EX. 6) | relative bond affinity (RBA), Androgen 0,5H (Androgen receptor; listed as EX. 5) | relative bond affinity (RBA), Androgen (Androgen receptor; listed as EX. 5) | Structure (SMILES) | relative bond affinity (RBA), Progesterone 2H (Progesterone receptor) | relative bond affinity (RBA), Progesterone 24H (Progesterone receptor) | antiprogesterone activity (Progesterone receptor) | relative bond affinity (RBA), Progesterone 24H (Progesterone receptor; listed as EX. 6) | relative bond affinity (RBA), Progesterone 24H (Progesterone receptor; listed as EX. 5) |
| --- | --- | --- | --- | --- | --- | --- | --- | --- | --- | --- | --- |
| 1,9 | 8,6 |  |  |  |  | CN(C)c1ccc([C@H]2C[C@@]3(C)[C@@H](CC[C@]3(C#CCl)OC(=O)CCC(=O)O)[C@@H]3CCC4=CC(=O)CCC4=C32)cc1 [Example 10, Sodium and 21-chloro-11β-[4-dimethylamino-phenyl]-19-nor-17α-Δ^4,9-pregnadien-3-one-20-yn-17β-yl succinate] | 3 | 13 | good |  |  |
|  |  | 2,2 | 4,1 |  |  | CC#C[C@]1(OC(=O)CCC(=O)O)CC[C@H]2[C@@H]3CCC4=CC(=O)CCC4=C3[C@@H](c3ccc(N(C)C)cc3)C[C@@]21C [Example 6, Sodium 11β-[4-dimethylamino-phenyl]17α-(1-propynyl)-Δ^4,9 - estradien-3-one-17β-yl succinate] | 2 |  |  | 6 |  |
| 12 | 39 |  |  |  |  | CN(C)c1ccc([C@H]2C[C@@]3(C)[C@@H](CC[C@@]3(O)/C=C\COC(=O)CCC(=O)O)[C@@H]3CCC4=CC(=O)CCC4=C32)cc1 [Example 2, Sodium (Z)-3-[11β-[4-dimethylamino-phenyl]-Δ^4,9-estradien-17β-ol-3-one-17α-yl]-2-propenyl succinate] | 21 | 88 |  |  |  |
